Measurements from PMC6418270, “The pharmacological and functional characterization of the serotonergic system in Anopheles gambiae and Aedes aegypti: influences on flight and blood-feeding behavior” (Scientific Reports, 2019).
pIC50: −log10 of the molar value. Structures can show the parent of a compound that is named as a salt.

Assays:
[1] = system: Ae. aegypti; assay: Flight performance in flight cylinder after microinjection; assay type: in vivo, Aedes aegypti; details: for Distance average in flight cylinder: Fig. 5d; for Average distance dropped before landing on flight cylinder: Fig. 5b
Procedure: (§1) Stock solutions of the compounds were diluted to the appropriate concentrations in 1X phosphate buffer solution (PBS). To account for potential solvent effects, an ultrapure H2O control group was included in every independent experiment. Female mosquitoes were either cold- or CO2-anesthetized. A Nanoject II Auto-Nanoliter Injector (Drummond Scientific Company, Broomall, PA) was then utilized to microinject 69 nL of compound into the spiracle.
A flight cylinder was assembled as described previously. The polyacrylamide sheet was coated with Tangle-Trap Sticky Coating (The Scotts Company LLC, Marysville, OH) and allowed to sit overnight before insertion into the flight cylinder. Adult mosquitoes were anesthetized on a CO2 pad and microinjected with the compound or ultrapure H2O control. Post-injection, they were permitted to recover in a fly vial for 30 minutes before being ejected into the flight cylinder. After each trial, the distance between the top of the cylinder and the trapped mosquito was recorded. Mosquitoes captured in the fly vial at the bottom of the cylinder were considered to be incapable of flying and a distance of 91.5 cm was recorded.
(§2) Luminescence and calcium assay data were normalized and fitted with a non-linear least squares regression to generate dose-response curves, EC50 and IC50 values. Unpaired t-tests or Dunnett’s multiple comparisons test were performed accordingly to compare EC50 or IC50 values. Locomotion was measured based on the distance required for flight recovery. Data were compared with the Kruskal-Wallis and Dunnett’s multiple comparison tests after the Kolmogorov-Smirnov normality test was conducted. In the blood-feeding experiments, the percentage of blood-fed mosquitoes was calculated for each treatment group. For each biological replicate, the treatment groups were normalized with respect to the untreated group. Dunnett’s multiple comparison tests were utilized to determine statistical difference between normalized data. Size of bloodmeals were compared with an unpaired t-test or Mann-Whitney test after normality was evaluated with the Kolmogorov-Smirnov test. All analyses were performed utilizing GraphPad Prism version 7.00 for Mac OS X, GraphPad Software, La Jolla California USA, www.graphpad.com.

[2] = system: Ae. aegypti; assay: Blood-feeding assay (artificial membrane feeder) after microinjection; assay type: in vivo, Aedes aegypti; details: 1 mM microinjected
Procedure: as §1
Seven to ten-day old female mosquitoes were treated with compound or appropriate control through microinjection post cold-anesthetization or ingestion. Two mL of human O^+ blood (BioChemed Services, Winchester, VA) was utilized to cover the concave surface of an inverted baby food jar. Hog intestine sealed the opening to simulate the puncturing of a host’s skin. The feeding membrane was placed on the top of a mosquito cage, and hot water was poured into the jar to warm the blood. After a 45-minute feed, the mosquitoes were immediately preserved at −20 °C. The blood meal size was determined for each mosquito via hemoglobinometry as previously described.
as §2

[3] = system: D. melanogaster; parameters: method as in PMID 26989517, PMID 24586928; details: larval and adult; cited from earlier work
[4] = system: octopamine receptor (AGAP000045); assay: Inhibition in HEK-293 cells expressing an octopamine receptor; assay type: cell-based, Anopheles gambiae
[5] = system: D. melanogaster larvae; parameters: method as in PMID 23817146; details: cited from earlier work
[6] = target: AGAP002229 (Anopheles gambiae, UniProt A7UR33); assay: Fluo-4 calcium assay in CRE-luc2P HEK-293 cells expressing AGAP002229; assay type: cell-based; details: antagonist test; receptor not given, taken as both 5-HT2 cell lines
Chain of AGAP002229 (A7UR33 entry or part of it): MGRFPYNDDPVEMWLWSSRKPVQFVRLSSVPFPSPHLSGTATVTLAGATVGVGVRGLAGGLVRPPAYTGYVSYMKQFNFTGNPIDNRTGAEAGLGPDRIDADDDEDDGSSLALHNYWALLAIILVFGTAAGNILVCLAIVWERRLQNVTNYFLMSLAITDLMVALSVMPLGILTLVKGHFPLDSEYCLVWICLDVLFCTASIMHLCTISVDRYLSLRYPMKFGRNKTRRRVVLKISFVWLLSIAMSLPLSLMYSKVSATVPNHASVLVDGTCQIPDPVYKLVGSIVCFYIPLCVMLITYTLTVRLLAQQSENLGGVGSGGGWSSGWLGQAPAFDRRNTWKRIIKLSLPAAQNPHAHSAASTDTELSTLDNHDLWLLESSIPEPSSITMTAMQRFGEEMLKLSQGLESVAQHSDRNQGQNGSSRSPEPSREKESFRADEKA
Procedure: A week post-transfection, selective pressure was applied with […] of G418 antibiotic to generate stable lines.
1 × 10^6 cells per well were seeded into a 96-well black all-clear bottom plate and incubated overnight in 10% FBS/90% DMEM at 37 °C with an atmosphere of 5% CO2. The following day, 2X Fluo-4 Direct calcium dye (Molecular Devices LLC, San Jose, CA) was added to each well and incubated in the same conditions for 45 minutes before the assay was completed. At this time, serial dilutions of the test compounds were prepared in a 96-well clear flat bottom plate. […] Fluorescence measurements continued to be recorded for a total of 120 seconds at 2-second intervals. When testing antagonists, cells were treated with the compound prior to determination of fluorescence levels.
as §2

[7] = system: D1-like dopamine receptors; details: cited from earlier work
[8] = target: AGAP002232 (Anopheles gambiae, UniProt A0A1S4GEY1); assay: Fluo-4 calcium assay in CRE-luc2P HEK-293 cells expressing AGAP002232; assay type: cell-based
Chain of AGAP002232 (A0A1S4GEY1 entry or part of it): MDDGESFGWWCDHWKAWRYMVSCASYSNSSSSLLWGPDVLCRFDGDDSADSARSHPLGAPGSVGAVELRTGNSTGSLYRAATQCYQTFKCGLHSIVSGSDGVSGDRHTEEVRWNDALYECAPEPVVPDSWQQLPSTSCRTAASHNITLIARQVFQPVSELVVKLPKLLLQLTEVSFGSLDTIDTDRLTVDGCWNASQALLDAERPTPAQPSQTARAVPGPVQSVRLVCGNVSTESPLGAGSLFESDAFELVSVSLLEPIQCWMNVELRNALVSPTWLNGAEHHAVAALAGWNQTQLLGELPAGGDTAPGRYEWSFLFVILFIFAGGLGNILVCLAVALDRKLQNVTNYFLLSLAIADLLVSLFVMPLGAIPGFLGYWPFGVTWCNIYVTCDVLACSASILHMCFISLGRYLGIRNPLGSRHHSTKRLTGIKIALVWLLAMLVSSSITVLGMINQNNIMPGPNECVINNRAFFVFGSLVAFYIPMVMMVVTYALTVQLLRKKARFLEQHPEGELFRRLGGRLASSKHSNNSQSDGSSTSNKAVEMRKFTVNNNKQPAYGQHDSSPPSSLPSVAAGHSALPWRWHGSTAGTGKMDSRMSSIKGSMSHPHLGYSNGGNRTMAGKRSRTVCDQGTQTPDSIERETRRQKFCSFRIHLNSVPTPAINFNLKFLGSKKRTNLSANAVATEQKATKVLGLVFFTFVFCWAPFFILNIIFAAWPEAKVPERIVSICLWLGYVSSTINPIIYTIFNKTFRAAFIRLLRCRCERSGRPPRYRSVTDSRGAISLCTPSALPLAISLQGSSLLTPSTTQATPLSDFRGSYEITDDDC
Procedure: The GloResponse™ CRE-luc2P human embryonic kidney (HEK-293) reporter cells were incubated at 37 °C with an atmosphere of 5% CO2, and maintained in Dulbecco’s Modified Eagle Medium (DMEM) supplemented with 10% fetal bovine serum (FBS) and […] hygromycin B. Transfection of the HEK-293 cells with 1 μg of plasmid DNA was performed with Amaxa Nucleofector™ technology (Lonza, Basel, Switzerland) as per manufacturer’s instructions. A week post-transfection, selective pressure was applied with […] of G418 antibiotic to generate stable lines.
1 × 10^6 cells per well were seeded into a 96-well black all-clear bottom plate and incubated overnight in 10% FBS/90% DMEM at 37 °C with an atmosphere of 5% CO2. The following day, 2X Fluo-4 Direct calcium dye (Molecular Devices LLC, San Jose, CA) was added to each well and incubated in the same conditions for 45 minutes before the assay was completed. At this time, serial dilutions of the test compounds were prepared in a 96-well clear flat bottom plate. Fluorescence levels were determined with a FlexStation3 microplate reader, with excitation and emission wavelengths set to 485 and 525 nm, respectively (Molecular Devices LLC). Basal fluorescence levels were measured for 17 seconds, at which time, 25 μl of the agonist compound was added. Fluorescence measurements continued to be recorded for a total of 120 seconds at 2-second intervals. When testing antagonists, cells were treated with the compound prior to determination of fluorescence levels.
as §2

SMILES: CNCCC(Oc1ccc(C(F)(F)F)cc1)c1ccccc1 (stereo not drawn) [fluoxetine, fluoxetine hydrochloride]
- Distance average in flight cylinder ([1]; 2.5 mM): 41.61 cm
- Distance average in flight cylinder ([1]; 4 mM): 81.63 cm
- Successfully blood-fed, normalized to the untreated group [2]: approximately 80%
- Effect on locomotion [3]: repress locomotion

SMILES: CS(=O)(=O)O.CSc1ccc2c(c1)C(N1CCN(C)CC1)Cc1ccccc1S2 (stereo not drawn) [methiothepin, methiothepin mesylate salt]
- Inhibitory effect on octopamine receptor ([4]; 10^−4 M): marked inhibition
- Inhibitory effect on octopamine receptor ([4]; all other concentrations of the range 10^−10 to 10^−4 M): did not elicit a similar result
- Effect on feeding [5]: anorectic agent
- Successful flights ([1]; 1 mM microinjected (69 nL)): 92%
- Average distance dropped before landing on flight cylinder ([1]; 1 mM): 22.77 cm
- Successful flights ([1]; 1.5 mM microinjected (69 nL)): 84%
- Average distance dropped before landing on flight cylinder ([1]; 1.5 mM): 33.04 cm
- Average distance in flight cylinder ([1]; 1.5 mM, Fig. 5c): 41.38 cm
- Successful flights ([1]; 2.5 mM microinjected (69 nL)): 61%
- Average distance dropped before landing on flight cylinder ([1]; 2.5 mM): 49.27 cm
- Blood meal size [2]: 2.25 µL
- Successfully blood-fed, normalized to the untreated group [2]: 50.7%
- Ability to inhibit activity in a dose-response manner [6]: exhibited the ability to inhibit activity in a dose-response manner
- Inhibition of D1-like dopamine receptors [7]: ability to inhibit D1-like dopamine receptors
- Ability to inhibit activity in a dose-response manner ([8]; antagonist test, receptor not given, taken as both 5-HT2 cell lines): exhibited the ability to inhibit activity in a dose-response manner
- pIC50 ([8]; read-out: IC50 (calcium response to 5-HT), AGAP002232 HEK-293 cells): 9.25
- Lowest concentration exhibiting inhibitory effects ([8]; receptor not given): 10^−16 M
